Experimental data published in patent US20100137449A1, “SUBSTITUTED 1,3-CYCLOPENTADIONE MULTI-TARGET PROTEIN KINASE MODULATORS OF CANCER, ANGIOGENESIS AND THE INFLAMMATORY PATHWAYS ASSOCIATED THEREWITH” (METAPROTEOMICS, LLC, priority 2007, published 2010).

How the values were obtained:
Test in all cases: KinaseProfiler Assay
BrSK1(h) = molecular target: T1, BrSK1(h) (Homo sapiens, UniProt Q8TDC3)
T1 sequence (Q8TDC3 1-778): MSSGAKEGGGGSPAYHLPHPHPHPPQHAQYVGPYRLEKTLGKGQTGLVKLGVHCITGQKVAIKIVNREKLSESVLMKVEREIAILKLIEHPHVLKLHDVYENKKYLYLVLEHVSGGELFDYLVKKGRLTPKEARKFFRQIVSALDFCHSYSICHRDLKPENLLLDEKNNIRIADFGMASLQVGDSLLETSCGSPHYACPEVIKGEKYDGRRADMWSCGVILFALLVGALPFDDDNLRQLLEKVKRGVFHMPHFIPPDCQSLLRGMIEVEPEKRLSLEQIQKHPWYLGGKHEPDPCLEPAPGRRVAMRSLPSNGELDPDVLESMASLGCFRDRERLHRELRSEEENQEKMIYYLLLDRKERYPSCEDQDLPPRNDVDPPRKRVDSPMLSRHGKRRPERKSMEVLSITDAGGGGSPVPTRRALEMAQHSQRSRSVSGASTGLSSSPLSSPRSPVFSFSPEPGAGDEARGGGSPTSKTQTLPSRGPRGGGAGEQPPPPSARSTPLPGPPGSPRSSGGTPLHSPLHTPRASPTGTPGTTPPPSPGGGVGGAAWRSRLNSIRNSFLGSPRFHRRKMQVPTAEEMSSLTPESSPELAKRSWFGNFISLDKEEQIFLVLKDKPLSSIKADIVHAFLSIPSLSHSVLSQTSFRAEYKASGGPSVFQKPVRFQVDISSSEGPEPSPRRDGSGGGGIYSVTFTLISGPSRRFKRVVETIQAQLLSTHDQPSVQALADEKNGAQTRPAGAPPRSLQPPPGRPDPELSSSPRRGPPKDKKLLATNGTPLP

DRAK1(h) = molecular target: T2, DRAK1(h) (Homo sapiens, UniProt Q9UEE5)
T2 sequence (Q9UEE5 1-414): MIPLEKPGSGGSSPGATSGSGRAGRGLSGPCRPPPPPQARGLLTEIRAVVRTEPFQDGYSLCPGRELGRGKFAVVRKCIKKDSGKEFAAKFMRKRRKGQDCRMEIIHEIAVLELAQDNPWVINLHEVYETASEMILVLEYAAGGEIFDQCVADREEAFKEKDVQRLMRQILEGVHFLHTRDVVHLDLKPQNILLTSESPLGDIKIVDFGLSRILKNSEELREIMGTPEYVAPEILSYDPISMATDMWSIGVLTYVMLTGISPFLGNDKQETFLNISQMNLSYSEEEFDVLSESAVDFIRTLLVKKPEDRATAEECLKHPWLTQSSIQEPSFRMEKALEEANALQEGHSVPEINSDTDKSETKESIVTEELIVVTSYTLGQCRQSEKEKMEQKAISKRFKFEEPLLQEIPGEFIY

Tie2(h) = Tie2(h) (Homo sapiens, UniProt Q02763)
Tie2(h), sequence (Q02763 23-1124): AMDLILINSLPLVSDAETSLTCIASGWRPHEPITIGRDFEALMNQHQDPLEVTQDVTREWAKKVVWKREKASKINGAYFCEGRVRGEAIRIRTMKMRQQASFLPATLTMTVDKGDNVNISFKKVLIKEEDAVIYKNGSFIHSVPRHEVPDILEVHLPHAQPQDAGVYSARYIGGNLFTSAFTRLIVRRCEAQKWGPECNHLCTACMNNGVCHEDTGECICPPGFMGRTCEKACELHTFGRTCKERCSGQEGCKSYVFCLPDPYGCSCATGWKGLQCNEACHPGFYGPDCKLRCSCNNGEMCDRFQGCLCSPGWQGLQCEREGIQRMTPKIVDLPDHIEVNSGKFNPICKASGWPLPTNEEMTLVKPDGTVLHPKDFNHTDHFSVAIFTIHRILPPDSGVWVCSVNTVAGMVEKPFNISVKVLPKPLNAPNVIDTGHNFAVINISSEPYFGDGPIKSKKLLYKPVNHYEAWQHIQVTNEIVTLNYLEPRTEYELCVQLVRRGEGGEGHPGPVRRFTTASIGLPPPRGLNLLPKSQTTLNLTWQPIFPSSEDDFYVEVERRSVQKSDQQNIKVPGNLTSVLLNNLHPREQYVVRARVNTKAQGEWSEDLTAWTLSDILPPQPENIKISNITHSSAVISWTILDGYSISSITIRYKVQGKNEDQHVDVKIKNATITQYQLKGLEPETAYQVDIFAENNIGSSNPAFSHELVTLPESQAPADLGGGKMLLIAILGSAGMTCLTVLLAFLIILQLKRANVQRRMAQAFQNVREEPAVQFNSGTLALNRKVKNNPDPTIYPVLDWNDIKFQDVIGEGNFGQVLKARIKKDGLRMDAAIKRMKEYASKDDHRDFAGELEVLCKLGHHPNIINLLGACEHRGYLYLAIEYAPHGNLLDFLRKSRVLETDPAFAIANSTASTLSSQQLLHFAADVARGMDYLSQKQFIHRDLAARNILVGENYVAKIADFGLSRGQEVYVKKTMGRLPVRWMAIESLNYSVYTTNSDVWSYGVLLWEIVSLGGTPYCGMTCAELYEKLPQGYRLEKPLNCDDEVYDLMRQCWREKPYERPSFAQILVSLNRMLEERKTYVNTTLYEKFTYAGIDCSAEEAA

CK1γ3(h) = CK1γ3(h) (Homo sapiens, UniProt Q9Y6M4)
CK1γ3(h), sequence (Q9Y6M4 whole entry): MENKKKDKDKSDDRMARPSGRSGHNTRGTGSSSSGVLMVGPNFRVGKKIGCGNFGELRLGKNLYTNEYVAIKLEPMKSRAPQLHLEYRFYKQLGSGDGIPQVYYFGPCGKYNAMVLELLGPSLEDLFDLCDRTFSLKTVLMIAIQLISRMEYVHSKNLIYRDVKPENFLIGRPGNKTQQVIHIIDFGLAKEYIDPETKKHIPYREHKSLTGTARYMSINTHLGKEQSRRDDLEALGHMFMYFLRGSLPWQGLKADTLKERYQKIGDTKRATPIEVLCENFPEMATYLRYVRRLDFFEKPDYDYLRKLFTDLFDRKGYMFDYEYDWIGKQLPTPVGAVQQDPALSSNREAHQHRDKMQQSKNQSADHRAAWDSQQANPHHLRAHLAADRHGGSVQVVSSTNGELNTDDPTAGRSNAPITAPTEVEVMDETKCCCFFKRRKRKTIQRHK

MSSK1(h) = MSSK1(h) (Homo sapiens, UniProt Q9UPE1)
MSSK1(h), sequence (Q9UPE1 whole entry): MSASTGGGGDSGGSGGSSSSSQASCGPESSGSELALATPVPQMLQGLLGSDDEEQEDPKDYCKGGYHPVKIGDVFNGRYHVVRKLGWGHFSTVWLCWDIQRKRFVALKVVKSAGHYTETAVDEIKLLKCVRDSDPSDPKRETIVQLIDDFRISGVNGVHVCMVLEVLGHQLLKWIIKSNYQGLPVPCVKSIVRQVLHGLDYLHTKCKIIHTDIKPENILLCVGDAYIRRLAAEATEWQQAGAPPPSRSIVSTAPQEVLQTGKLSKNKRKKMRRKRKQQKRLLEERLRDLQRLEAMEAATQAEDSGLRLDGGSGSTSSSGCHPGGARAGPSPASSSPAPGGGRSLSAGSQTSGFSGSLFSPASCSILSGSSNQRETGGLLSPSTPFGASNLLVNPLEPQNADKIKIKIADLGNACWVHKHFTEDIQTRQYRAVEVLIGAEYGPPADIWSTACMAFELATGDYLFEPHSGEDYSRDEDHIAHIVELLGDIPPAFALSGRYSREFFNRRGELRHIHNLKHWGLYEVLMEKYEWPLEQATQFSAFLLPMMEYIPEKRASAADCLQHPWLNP

HIPK2(h) = HIPK2(h) (Homo sapiens, UniProt Q9H2X6)
Lck(h) = Lck(h) (Homo sapiens, UniProt P06239)
Lck(h), sequence (P06239 whole entry): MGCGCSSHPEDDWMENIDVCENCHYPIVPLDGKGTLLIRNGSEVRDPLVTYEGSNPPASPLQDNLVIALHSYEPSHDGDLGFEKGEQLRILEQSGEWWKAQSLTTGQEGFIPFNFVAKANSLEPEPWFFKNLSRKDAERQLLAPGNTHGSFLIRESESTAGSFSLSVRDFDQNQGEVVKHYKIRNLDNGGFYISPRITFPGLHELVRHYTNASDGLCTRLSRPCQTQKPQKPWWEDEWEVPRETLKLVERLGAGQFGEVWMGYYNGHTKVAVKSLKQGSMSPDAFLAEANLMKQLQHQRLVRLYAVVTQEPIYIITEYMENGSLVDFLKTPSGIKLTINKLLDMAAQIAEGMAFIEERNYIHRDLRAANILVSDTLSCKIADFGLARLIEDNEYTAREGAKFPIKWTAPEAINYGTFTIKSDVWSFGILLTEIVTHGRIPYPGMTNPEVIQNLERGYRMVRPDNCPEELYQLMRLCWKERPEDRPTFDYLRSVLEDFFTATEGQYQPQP

Ron(h) = Ron(h) (Homo sapiens, UniProt Q04912)
Ron(h), sequence (Q04912 25-1400): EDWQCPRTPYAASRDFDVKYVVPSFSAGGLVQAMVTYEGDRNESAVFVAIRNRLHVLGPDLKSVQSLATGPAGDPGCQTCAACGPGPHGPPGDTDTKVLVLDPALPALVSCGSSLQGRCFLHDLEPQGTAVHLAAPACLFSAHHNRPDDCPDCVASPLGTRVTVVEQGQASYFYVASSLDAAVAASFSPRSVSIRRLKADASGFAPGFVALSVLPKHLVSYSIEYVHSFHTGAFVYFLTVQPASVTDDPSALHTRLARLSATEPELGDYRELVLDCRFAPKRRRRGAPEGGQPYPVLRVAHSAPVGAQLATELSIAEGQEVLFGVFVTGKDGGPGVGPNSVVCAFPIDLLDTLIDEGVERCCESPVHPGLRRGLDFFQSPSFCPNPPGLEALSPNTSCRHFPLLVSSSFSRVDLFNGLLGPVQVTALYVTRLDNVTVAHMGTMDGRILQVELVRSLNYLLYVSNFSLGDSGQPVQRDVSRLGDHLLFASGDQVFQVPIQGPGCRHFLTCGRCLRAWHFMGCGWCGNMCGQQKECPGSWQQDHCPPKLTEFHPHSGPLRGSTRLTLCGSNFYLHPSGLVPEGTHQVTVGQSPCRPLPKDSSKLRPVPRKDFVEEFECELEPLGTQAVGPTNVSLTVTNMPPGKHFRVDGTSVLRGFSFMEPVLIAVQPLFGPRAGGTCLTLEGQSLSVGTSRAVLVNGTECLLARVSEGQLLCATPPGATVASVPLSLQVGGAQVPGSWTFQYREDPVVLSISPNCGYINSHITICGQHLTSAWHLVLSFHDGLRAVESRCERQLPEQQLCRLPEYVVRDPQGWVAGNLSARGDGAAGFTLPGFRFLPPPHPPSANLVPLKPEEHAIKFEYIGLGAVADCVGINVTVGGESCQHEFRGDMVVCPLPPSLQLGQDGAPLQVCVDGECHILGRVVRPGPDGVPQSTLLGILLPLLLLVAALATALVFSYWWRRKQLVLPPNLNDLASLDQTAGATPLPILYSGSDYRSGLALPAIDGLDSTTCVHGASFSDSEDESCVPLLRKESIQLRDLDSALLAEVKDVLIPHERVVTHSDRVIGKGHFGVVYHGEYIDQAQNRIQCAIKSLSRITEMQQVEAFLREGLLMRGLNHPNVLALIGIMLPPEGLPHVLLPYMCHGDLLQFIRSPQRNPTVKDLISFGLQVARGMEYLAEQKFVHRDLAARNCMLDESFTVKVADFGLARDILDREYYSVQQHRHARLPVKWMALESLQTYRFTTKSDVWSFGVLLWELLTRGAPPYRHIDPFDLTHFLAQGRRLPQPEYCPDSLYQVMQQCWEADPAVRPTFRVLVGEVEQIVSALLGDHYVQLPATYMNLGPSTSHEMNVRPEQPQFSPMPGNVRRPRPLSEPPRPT

Itk(h) = molecular target: T3, Itk(h) (Homo sapiens, UniProt Q08881)
T3 sequence (Q08881 1-620): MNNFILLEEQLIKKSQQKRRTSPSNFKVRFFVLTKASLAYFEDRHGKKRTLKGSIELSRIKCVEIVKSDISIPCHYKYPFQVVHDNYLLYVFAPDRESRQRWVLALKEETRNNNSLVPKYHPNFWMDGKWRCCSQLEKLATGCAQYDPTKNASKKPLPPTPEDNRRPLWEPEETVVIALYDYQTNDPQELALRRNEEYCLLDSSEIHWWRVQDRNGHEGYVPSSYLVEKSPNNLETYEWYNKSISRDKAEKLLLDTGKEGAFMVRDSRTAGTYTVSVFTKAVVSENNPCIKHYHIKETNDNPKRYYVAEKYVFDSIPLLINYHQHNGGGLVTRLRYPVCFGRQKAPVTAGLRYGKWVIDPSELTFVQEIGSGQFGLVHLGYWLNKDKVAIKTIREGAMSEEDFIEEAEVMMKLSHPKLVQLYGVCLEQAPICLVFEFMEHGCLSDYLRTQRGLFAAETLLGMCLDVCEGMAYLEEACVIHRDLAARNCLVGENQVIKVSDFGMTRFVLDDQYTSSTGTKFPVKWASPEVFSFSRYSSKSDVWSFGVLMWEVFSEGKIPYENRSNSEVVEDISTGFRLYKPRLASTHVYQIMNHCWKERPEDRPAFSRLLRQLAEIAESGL

CC(C)CCC(=O)[C@]1(O)C(O)=C(C(=O)C(C)C)C(=O)[C@H]1CCC(C)C [TH2, tetrahydroiso-cohumulone]
kinase inhibition (BrSK1(h); 1 μg/ml): 104% of control
kinase inhibition (BrSK1(h); 5 μg/ml): 101% of control
kinase inhibition (BrSK1(h); 25 μg/ml): 82% of control
kinase inhibition (BrSK1(h); 50 μg/ml): 66% of control
kinase inhibition (BrSK1(h); 100 μg/ml): 50% of control
kinase inhibition (DRAK1(h); 1 μg/ml): 103% of control
kinase inhibition (DRAK1(h); 5 μg/ml): 106% of control
kinase inhibition (DRAK1(h); 25 μg/ml): 107% of control
kinase inhibition (DRAK1(h); 50 μg/ml): 93% of control
kinase inhibition (DRAK1(h); 100 μg/ml): 79% of control
kinase inhibition (Tie2(h); 1 μg/ml): 110% of control
kinase inhibition (Tie2(h); 5 μg/ml): 96% of control
kinase inhibition (Tie2(h); 25 μg/ml): 74% of control
kinase inhibition (Tie2(h); 50 μg/ml): 80% of control
kinase inhibition (Tie2(h); 100 μg/ml): 78% of control
kinase inhibition (CK1γ3(h); 1 μg/ml): 96% of control
kinase inhibition (CK1γ3(h); 5 μg/ml): 91% of control
kinase inhibition (CK1γ3(h); 25 μg/ml): 83% of control
kinase inhibition (CK1γ3(h); 50 μg/ml): 43% of control
kinase inhibition (CK1γ3(h); 100 μg/ml): 34% of control
kinase inhibition (MSSK1(h); 1 μg/ml): 105% of control
kinase inhibition (MSSK1(h); 5 μg/ml): 84% of control
kinase inhibition (MSSK1(h); 25 μg/ml): 43% of control
kinase inhibition (MSSK1(h); 50 μg/ml): 50% of control
kinase inhibition (MSSK1(h); 100 μg/ml): 39% of control
kinase inhibition (HIPK2(h); 1 μg/ml): 120% of control
kinase inhibition (HIPK2(h); 5 μg/ml): 111% of control
kinase inhibition (HIPK2(h); 25 μg/ml): 115% of control
kinase inhibition (HIPK2(h); 50 μg/ml): 110% of control
kinase inhibition (HIPK2(h); 100 μg/ml): 97% of control
kinase inhibition (Lck(h); 1 μg/ml): 106% of control
kinase inhibition (Lck(h); 5 μg/ml): 111% of control
kinase inhibition (Lck(h); 25 μg/ml): 86% of control
kinase inhibition (Lck(h); 50 μg/ml): 83% of control
kinase inhibition (Lck(h); 100 μg/ml): 78% of control
kinase inhibition (Ron(h); 1 μg/ml): 123% of control
kinase inhibition (Ron(h); 5 μg/ml): 124% of control
kinase inhibition (Ron(h); 25 μg/ml): 123% of control
kinase inhibition (Ron(h); 50 μg/ml): 116% of control
kinase inhibition (Ron(h); 100 μg/ml): 94% of control
kinase inhibition (Itk(h); 1 μg/ml): 101% of control
kinase inhibition (Itk(h); 5 μg/ml): 103% of control
kinase inhibition (Itk(h); 25 μg/ml): 87% of control
kinase inhibition (Itk(h); 50 μg/ml): 82% of control
kinase inhibition (Itk(h); 100 μg/ml): 87% of control
